# Where two headings read alike, the source gives them in different places.
# B1: V48F (protein)
# chain: MVTIIQDDGAETYETKGGIQVSRKRRPTDYANAIDNYIEKLDSHRGAFFSSNYEYPGRYTRWDTAIVDPPLGISCFGRKMWIEAYNGRGEVLLDFITEKLKATPDLTLGASSTRRLDLTVNEPDRVFTEEERSKIPTVFTALRAIVDLFYSSADSAIGLFGAFGYDLAFQFDAIKLSLARPEDQRDMVLFLPDEILVVDHYSAKAWIDRYDFEKDGMTTDGKSSDITPDPFKTTDTIPPKGDHRPGEYSELVVKAKESFRRGDLFEVVPGQKFMERCESNPSAISRRLKAINPSPYSFFINLGDQEYLVGASPEMFVRVSGRRIETCPISGTIKRGDDPIADSEQILKLLNSKKDESELTMCSDVDRNDKSRVCEPGSVKVIGRRQIEMYSRLIHTVDHIEGRLRDDMDAFDGFLSHAWAVTVTGAPKLWAMRFIEGHEKSPRAWYGGAIGMVGFNGDMNTGLTLRTIRIKDGIAEVRAGATLLNDSNPQEEEAETELKASAMISAIRDAKGTNSAATKRDAAKVGTGVKILLVDHEDSFVHTLANYFRQTGATVSTVRSPVAADVFDRFQPDLVVLSPGPGSPTDFDCKATIKAARARDLPIFGVCLGLQALAEAYGGELRQLAVPMHGKPSRIRVLEPGLVFSGLGKEVTVGRYHSIFADPATLPRDFIITAESEDGTIMGIEHAKEPVAAVQFHPESIMTLGQDAGMRMIENVVVHLTRKAKTKAA
# modifications: An A. tumefaciens mutant.
# Assays:
# [1] = target: T1, Agrobacterium tumefaciens anthranilate synthase (AgroAS), wild type, SEQ ID NO: 4 (Agrobacterium fabrum, UniProt A9CI26); test: Anthranilate synthase assay, anthranilate formation by absorbance at 320 nm; type: biochemical; conditions: 25° C.
# T1 construct: no tag mentioned
# Procedure: (§1) Agrobacterium tumefaciens AS wild type and mutant enzymes were expressed in E. coli as described in Example 1. The purification of all the Agrobacterium tumefaciens AS enzymes, including wild type and mutants thereof, was performed at 4° C. The cells (approximate wet weight of 1 g) were suspended in 20 ml of purification buffer (50 mM potassium phosphate, pH 7.3, 10 mM MgCl2, 10 mM 2-mercaptoethanol, 10% glycerol) and lysed by ultrasonication (Branson sonifier Cell Disruptor, W185). Supernatant was collected after centrifugation of the homogenate at 20,000×g for 15 min. The supernatant was subjected to ammonium sulfate fractionation (30 to 65% saturation). The precipitate was collected after centrifugation at 20,000×g for 15 min and dissolved in 3 ml of the purification buffer and then loaded as a whole on an Econo-Pac 10DG desalting column, pre-equilibrated with the same buffer. Fractions containing the enzyme were detected by the developed assay and pooled. The pooled enzyme (4.3 mls) was loaded on a 10 ml DEAF Sephacel (Pharmacia Biotech) column (1.5×7.5 cm) equilibrated with the same buffer. The column was washed with 30 ml of the purification buffer and the enzyme was eluted with 30 ml of 50 mM NaCl in the same buffer. Fractions containing high AS activity were pooled and precipitated by 65% ammonium sulfate saturation and isolated and desalted as above. Fractions containing the enzyme were pooled and stored at −80° C.
# The standard assay for Agrobacterium tumefaciens AS was performed at 25° C. in an assay buffer containing 100 mM potassium phosphate, pH 7.0, 10 mM MgCl2, 1 mM dithiothreitol, 200 μM chorismate and 10 mM L-glutamine. The reaction was started by adding 30 μl of enzyme to the reaction mixture and mixing. The formation of anthranilate was directly monitored by the absorbance increase at 320 m for 3 minutes. Initial rate of reaction was calculated as unit absorbance increase per second based on the slope of the absorbance change over the reaction time. Km for chorismate (Km^Cho) was determined in the total volume of 1 ml assay buffer containing 100 mM potassium phosphate, pH 7.0, 10 mM MgCl2, 1 mM dithiothreitol with 10 mM L-glutamine and varying the concentration of chorismate between 2.5-100 μM chorismate. The Km for glutamine (Km^Gln) was determined in the total volume of 1 ml assay buffer containing 100 mM potassium phosphate, pH 7.0, 10 mM MgCl2, 1 mM dithiothreitol with 200 μM chorismate and varying the concentration of L-glutamine between 0.1-2 mM L-glutamine. […] Kinetic parameters and IC50 of AS were calculated after fitting the data to a non-linear regression program (GraFit).
# [2] = target: T2, Agrobacterium tumefaciens anthranilate synthase V48F mutant, SEQ ID NO: 58 (Agrobacterium fabrum, UniProt A9CI26, V48F); test: Anthranilate synthase assay, V48F mutant; type: biochemical; conditions: 25° C.
# T2 construct: no tag mentioned
# Text: (§2) Site directed mutagenesis was used to generate ten single amino acid substitutions six sites. The mutations were introduced into the Agrobacterium tumefaciens AS in pMON34705 using the QuikChange™ Site-Directed Mutagenesis Kit (Stratagene). The primers used for site directed mutagenesis were SEQ ID NOs: 9-42 (FIG. 7; F=forward, R=reverse). Each primer sequence is specific for alteration of the nucleic acid at a specific location in the sequence and thus changing the encoded codon to code for a new amino acid. For example, S51C designates a change from serine to cysteine at amino acid position 51 in the Agrobacterium tumefaciens AS peptide sequence.
# (§3) Following mutagenesis the sequence of the entire gene was reconfirmed and the variants expressed and purified from E. coli as described below for the wild type enzyme. The resultant plasmids comprising mutant Agrobacterium tumefaciens AS are suitably cloned into a plasmid for overproduction of protein using the T7 expression system as described in Example 1.
# as §1, with “The column was washed with 30 ml of the purification buffer and the enzyme was eluted with 30 ml of 50 mM NaCl in the same buffer. Fractions containing high AS activity were pooled and precipitated by 65% ammonium sulfate saturation and isolated and desalted as above. Fractions containing the enzyme were pooled and stored at −80° C.” left out
# (§4) The standard assay for Agrobacterium tumefaciens AS was performed at 25° C. in an assay buffer containing 100 mM potassium phosphate, pH 7.0, 10 mM MgCl2, 1 mM dithiothreitol, 200 μM chorismate and 10 mM L-glutamine. […] The formation of anthranilate was directly monitored by the absorbance increase at 320 m for 3 minutes. Initial rate of reaction was calculated as unit absorbance increase per second based on the slope of the absorbance change over the reaction time. […] Kinetic parameters and IC50 of AS were calculated after fitting the data to a non-linear regression program (GraFit).
# [3] = target: T3, Agrobacterium tumefaciens anthranilate synthase V48Y mutant, SEQ ID NO: 59 (Agrobacterium fabrum, UniProt A9CI26, V48Y); test: Anthranilate synthase assay, V48Y mutant; type: biochemical; conditions: 25° C.
# T3 construct: no tag mentioned
# Text: as §2, §3
# as §1, with “The column was washed with 30 ml of the purification buffer and the enzyme was eluted with 30 ml of 50 mM NaCl in the same buffer. Fractions containing high AS activity were pooled and precipitated by 65% ammonium sulfate saturation and isolated and desalted as above. Fractions containing the enzyme were pooled and stored at −80° C.” left out
# as §4
# [4] = target: T4, Agrobacterium tumefaciens anthranilate synthase S50K mutant, SEQ ID NO: 69 (Agrobacterium fabrum, UniProt A9CI26, S50K); test: Anthranilate synthase assay, S50K mutant; type: biochemical; conditions: 25° C.
# T4 construct: no tag mentioned
# Text: as §2, §3
# as §1, with “The column was washed with 30 ml of the purification buffer and the enzyme was eluted with 30 ml of 50 mM NaCl in the same buffer. Fractions containing high AS activity were pooled and precipitated by 65% ammonium sulfate saturation and isolated and desalted as above. Fractions containing the enzyme were pooled and stored at −80° C.” left out
# as §4
# [5] = target: T5, Agrobacterium tumefaciens anthranilate synthase S51F mutant, SEQ ID NO: 60 (Agrobacterium fabrum, UniProt A9CI26, S51F); test: Anthranilate synthase assay, S51F mutant; type: biochemical; conditions: 25° C.
# T5 construct: no tag mentioned
# Text: as §2, §3
# as §1, with “The column was washed with 30 ml of the purification buffer and the enzyme was eluted with 30 ml of 50 mM NaCl in the same buffer. Fractions containing high AS activity were pooled and precipitated by 65% ammonium sulfate saturation and isolated and desalted as above. Fractions containing the enzyme were pooled and stored at −80° C.” left out
# as §4
# [6] = target: T6, Agrobacterium tumefaciens anthranilate synthase S51C mutant, SEQ ID NO: 61 (Agrobacterium fabrum, UniProt A9CI26, S51C); test: Anthranilate synthase assay, S51C mutant; type: biochemical; conditions: 25° C.
# T6 construct: no tag mentioned
# Text: as §2, §3
# as §1, with “The column was washed with 30 ml of the purification buffer and the enzyme was eluted with 30 ml of 50 mM NaCl in the same buffer. Fractions containing high AS activity were pooled and precipitated by 65% ammonium sulfate saturation and isolated and desalted as above. Fractions containing the enzyme were pooled and stored at −80° C.” left out
# as §4
# [7] = target: T7, Agrobacterium tumefaciens anthranilate synthase N52F mutant, SEQ ID NO: 62 (Agrobacterium fabrum, UniProt A9CI26, N52F); test: Anthranilate synthase assay, N52F mutant; type: biochemical; conditions: 25° C.
# T7 construct: no tag mentioned
# Text: as §2, §3
# as §1, with “The column was washed with 30 ml of the purification buffer and the enzyme was eluted with 30 ml of 50 mM NaCl in the same buffer. Fractions containing high AS activity were pooled and precipitated by 65% ammonium sulfate saturation and isolated and desalted as above. Fractions containing the enzyme were pooled and stored at −80° C.” left out
# as §4
# [8] = target: T8, Agrobacterium tumefaciens anthranilate synthase P293A mutant, SEQ ID NO: 63 (Agrobacterium fabrum, UniProt A9CI26, P293A); test: Anthranilate synthase assay, P293A mutant; type: biochemical; conditions: 25° C.
# T8 construct: no tag mentioned
# Text: as §2, §3
# as §1, with “The column was washed with 30 ml of the purification buffer and the enzyme was eluted with 30 ml of 50 mM NaCl in the same buffer. Fractions containing high AS activity were pooled and precipitated by 65% ammonium sulfate saturation and isolated and desalted as above. Fractions containing the enzyme were pooled and stored at −80° C.” left out
# as §4
# [9] = target: T9, Agrobacterium tumefaciens anthranilate synthase P293G mutant, SEQ ID NO: 64 (Agrobacterium fabrum, UniProt A9CI26, P293G); test: Anthranilate synthase assay, P293G mutant; type: biochemical; conditions: 25° C.
# T9 construct: no tag mentioned
# Text: as §2, §3
# as §1, with “The column was washed with 30 ml of the purification buffer and the enzyme was eluted with 30 ml of 50 mM NaCl in the same buffer. Fractions containing high AS activity were pooled and precipitated by 65% ammonium sulfate saturation and isolated and desalted as above. Fractions containing the enzyme were pooled and stored at −80° C.” left out
# as §4
# soy seed = test: Free amino acid analysis of soy seed (tryptophan content); type: in vivo, Glycine max; conditions: R1 soy seeds expressing the mutant protein
# Procedure: Amino Acid Extraction: About 50 mg of crushed soy seed (5 mg of Arabidopsis) material was placed in each centrifuge vial. One milliliter of 5% trichloroacetic acid was added to each sample (100 μl for Arabidopsis). The samples were vortexed, and allowed to sit, with agitation, at room temperature for 15 min. They were then microcentrifuged for 15 min at 14000 rpm. Some of the supernatant was then removed, placed in a HPLC vial and sealed. Samples were kept at 4° C. in the analysis queue.
# Amino Acid Analysis: The reagents utilized for amino acid analysis included the OPA reagent (o-phthalaldehyde and 3-mercaptopropionic acid in borate buffer (Hewlett-Packard, PN 5061-3335)) where the borate buffer (0.4 N in water, pH 10.2). The analysis was performed using the Agilent 1100 series HPLC system as described in the Agilent Technical Publication, “Amino Acid Analysis Using Zorbax Eclipse-AAA Columns and the Agilent 1100 HPLC”, Mar. 17, 2000. First, 0.5 μl of the sample was derivatized with 2.5 μl of OPA reagent in 10 μl of borate buffer. Second, the derivative is injected onto a Eclipse XDB-C18 5 μm, 4.6×150 mm column using a flow rate of 1.2 ml/min. Amino acid concentrations were measured using fluorescence: excitation at 340 nm, emission at 450 nm. Elution was with a gradient of HPLC Buffers A and B according to Table A, where HPLC Buffer A was 40 mM Na2HPO4, pH=7.8 and HPLC Buffer B was 9:9:2::Methanol:Acetonitrile:Water.
# Amino acid standards were prepared from the dry chemicals, using all amino acids of interest. Proline analysis required an additional derivatization step with 9-fluorenylmethyl-chloroformate (FMOC). Amino acid standards were also sometimes purchased in concentrations ranging from 0 to 100 μg/ml. Samples were reported in μg/g of seed powder.
# Mature R1 seed is produced and analyzed for free amino acid content using fluorescence detection as described in Agilent Technologies Technical Bulletin REV14. Five seeds are chosen for single seed analysis from each event. […] The highest levels of tryptophan have a negative impact on germination.
# [10] = pH 7.0, 10 mM L-glutamine, 2.5-100 μM chorismate, read-out: Km for chorismate (Km^Cho)
# [11] = pH 7.0, 200 μM chorismate, 0.1-2 mM L-glutamine, read-out: Km for glutamine (Km^Gln)
# T4 sequence (A9CI26 whole entry S50K): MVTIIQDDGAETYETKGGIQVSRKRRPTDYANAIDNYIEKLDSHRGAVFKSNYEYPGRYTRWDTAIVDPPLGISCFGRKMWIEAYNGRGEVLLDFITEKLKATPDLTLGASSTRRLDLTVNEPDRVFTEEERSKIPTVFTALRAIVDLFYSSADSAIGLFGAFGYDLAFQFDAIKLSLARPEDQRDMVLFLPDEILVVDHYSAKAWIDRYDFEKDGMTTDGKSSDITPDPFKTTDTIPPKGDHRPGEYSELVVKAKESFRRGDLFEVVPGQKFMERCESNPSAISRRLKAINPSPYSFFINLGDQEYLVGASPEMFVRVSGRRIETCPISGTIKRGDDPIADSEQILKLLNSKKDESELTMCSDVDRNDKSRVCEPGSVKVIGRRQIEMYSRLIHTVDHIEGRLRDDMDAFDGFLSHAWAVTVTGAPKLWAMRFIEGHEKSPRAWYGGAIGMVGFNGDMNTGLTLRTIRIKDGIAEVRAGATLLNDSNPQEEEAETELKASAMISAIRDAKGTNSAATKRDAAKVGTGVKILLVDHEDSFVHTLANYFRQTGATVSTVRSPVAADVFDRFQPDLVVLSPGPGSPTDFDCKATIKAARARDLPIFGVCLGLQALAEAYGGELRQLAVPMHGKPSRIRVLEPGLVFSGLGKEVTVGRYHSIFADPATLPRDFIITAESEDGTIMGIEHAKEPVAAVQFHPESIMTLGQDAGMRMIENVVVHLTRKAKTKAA
# T1 sequence (A9CI26 entry or part of it): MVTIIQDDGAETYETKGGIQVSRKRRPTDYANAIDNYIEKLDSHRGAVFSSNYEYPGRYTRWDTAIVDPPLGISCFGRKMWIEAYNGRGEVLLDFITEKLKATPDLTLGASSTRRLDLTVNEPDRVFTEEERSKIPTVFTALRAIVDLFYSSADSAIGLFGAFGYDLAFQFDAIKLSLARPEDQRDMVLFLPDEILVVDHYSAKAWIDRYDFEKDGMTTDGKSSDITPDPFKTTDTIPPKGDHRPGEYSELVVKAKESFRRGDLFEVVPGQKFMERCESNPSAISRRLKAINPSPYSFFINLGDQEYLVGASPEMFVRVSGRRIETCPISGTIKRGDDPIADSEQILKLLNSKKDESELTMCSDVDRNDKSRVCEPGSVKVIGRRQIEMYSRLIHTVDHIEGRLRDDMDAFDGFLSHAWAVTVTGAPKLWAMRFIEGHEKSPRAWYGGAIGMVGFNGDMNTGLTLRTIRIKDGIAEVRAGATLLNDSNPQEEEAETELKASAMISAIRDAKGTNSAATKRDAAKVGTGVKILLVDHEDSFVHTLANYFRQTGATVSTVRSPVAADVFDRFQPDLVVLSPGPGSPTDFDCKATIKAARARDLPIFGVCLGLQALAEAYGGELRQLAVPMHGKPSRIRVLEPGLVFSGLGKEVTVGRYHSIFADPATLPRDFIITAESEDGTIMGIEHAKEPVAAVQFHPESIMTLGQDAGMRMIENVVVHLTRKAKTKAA
# T7 sequence (A9CI26 whole entry N52F): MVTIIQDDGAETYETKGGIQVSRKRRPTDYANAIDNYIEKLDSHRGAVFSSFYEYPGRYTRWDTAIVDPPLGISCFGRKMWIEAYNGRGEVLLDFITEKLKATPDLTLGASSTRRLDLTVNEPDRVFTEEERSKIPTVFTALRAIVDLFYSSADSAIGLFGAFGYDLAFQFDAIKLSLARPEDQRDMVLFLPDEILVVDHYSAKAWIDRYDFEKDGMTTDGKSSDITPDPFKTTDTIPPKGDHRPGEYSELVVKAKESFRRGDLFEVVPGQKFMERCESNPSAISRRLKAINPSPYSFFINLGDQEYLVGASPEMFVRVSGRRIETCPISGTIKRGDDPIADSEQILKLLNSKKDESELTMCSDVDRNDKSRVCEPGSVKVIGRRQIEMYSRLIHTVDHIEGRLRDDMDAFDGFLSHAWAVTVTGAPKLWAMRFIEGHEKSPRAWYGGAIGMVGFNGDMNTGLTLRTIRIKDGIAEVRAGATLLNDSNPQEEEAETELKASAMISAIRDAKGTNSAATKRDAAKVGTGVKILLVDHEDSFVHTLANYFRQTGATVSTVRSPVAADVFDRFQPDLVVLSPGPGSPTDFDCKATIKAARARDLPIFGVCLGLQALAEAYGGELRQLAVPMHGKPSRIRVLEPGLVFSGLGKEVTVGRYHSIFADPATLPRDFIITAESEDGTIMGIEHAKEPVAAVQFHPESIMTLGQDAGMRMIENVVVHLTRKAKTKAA
# T6 sequence (A9CI26 whole entry S51C): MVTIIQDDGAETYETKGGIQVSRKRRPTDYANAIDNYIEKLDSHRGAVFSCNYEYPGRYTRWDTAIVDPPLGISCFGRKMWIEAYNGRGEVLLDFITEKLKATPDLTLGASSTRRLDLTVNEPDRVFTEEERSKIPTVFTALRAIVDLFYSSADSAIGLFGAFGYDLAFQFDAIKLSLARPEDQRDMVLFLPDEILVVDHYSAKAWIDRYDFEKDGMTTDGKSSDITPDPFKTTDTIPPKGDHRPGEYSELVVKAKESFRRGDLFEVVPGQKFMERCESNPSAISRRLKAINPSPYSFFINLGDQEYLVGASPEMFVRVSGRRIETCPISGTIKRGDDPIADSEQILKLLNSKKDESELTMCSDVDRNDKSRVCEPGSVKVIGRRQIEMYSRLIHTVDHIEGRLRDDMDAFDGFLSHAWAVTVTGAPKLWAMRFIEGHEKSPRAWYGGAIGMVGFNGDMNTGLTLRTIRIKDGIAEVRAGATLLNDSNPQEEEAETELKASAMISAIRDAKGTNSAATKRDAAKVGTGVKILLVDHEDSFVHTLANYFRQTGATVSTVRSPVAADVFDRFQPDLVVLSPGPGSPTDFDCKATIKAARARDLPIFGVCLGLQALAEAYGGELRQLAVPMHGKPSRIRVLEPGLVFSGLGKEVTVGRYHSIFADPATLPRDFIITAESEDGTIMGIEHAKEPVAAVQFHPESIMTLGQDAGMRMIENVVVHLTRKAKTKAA
# T5 sequence (A9CI26 whole entry S51F): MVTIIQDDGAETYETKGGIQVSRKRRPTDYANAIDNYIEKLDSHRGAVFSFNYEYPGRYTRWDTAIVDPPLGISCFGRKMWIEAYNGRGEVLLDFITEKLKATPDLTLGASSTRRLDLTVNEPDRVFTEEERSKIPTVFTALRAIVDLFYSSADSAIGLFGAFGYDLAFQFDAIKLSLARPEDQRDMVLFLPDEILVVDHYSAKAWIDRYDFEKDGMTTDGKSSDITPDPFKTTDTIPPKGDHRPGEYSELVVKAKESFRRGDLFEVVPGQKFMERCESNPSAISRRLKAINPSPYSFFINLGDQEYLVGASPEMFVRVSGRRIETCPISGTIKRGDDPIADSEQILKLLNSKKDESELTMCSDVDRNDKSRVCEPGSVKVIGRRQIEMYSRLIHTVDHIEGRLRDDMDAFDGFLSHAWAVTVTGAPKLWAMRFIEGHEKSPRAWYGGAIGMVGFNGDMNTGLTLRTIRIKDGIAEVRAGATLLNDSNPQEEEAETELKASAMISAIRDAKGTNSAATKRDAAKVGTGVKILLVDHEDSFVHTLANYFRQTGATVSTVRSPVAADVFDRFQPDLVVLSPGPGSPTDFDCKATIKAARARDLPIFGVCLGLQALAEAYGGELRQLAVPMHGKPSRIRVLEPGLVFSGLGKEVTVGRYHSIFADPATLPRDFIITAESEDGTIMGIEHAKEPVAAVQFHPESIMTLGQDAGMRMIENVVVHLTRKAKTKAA
# T9 sequence (A9CI26 whole entry P293G): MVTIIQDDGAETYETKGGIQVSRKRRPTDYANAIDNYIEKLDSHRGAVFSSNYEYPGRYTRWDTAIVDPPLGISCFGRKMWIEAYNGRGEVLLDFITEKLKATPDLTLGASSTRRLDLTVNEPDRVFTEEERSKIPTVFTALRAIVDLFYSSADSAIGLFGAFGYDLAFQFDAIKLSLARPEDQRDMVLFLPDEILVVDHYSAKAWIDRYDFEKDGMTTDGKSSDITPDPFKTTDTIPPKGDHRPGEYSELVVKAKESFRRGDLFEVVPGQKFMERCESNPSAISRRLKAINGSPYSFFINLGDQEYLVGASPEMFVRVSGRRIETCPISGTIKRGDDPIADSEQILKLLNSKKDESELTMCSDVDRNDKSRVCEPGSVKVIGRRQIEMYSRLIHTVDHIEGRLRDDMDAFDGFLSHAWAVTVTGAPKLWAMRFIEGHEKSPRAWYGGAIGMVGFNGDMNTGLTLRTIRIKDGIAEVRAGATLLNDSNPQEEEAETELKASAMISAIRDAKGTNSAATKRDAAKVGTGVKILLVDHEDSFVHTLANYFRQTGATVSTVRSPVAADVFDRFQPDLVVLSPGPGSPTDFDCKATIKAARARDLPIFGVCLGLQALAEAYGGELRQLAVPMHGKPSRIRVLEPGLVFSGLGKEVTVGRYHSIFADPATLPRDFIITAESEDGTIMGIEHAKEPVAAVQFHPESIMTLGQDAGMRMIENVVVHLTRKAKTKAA
molecule,measurement,setting,value
C=C(O[C@@H]1C=C(C(=O)O)C=C[C@H]1O)C(=O)O [chorismate],kcat,[1]; pH 7.0,0.43 s⁻¹
same,kcat/Km^Cho,[1]; pH 7.0,53700 M⁻¹ s⁻¹
same,Km,[1]; [10],8 µM
same,kcat,[2]; pH 7.0,0.24 s⁻¹
same,kcat/Km^Cho,[2]; pH 7.0,53300 M⁻¹ s⁻¹
same,Km,[2]; [10],4.5 µM
same,kcat,[3]; pH 7.0,0.18 s⁻¹
same,kcat/Km^Cho,[3]; pH 7.0,42800 M⁻¹ s⁻¹
same,Km,[3]; [10],4.2 µM
same,kcat,[4]; pH 7.0,0.13 s⁻¹
same,kcat/Km^Cho,[4]; pH 7.0,10000 M⁻¹ s⁻¹
same,Km,[4]; [10],13 µM
same,kcat,[5]; pH 7.0,0.08 s⁻¹
same,kcat/Km^Cho,[5]; pH 7.0,8000 M⁻¹ s⁻¹
same,Km,[5]; [10],10 µM
same,kcat,[6]; pH 7.0,0.15 s⁻¹
same,kcat/Km^Cho,[6]; pH 7.0,53600 M⁻¹ s⁻¹
same,Km,[6]; [10],2.8 µM
same,kcat,[7]; pH 7.0,0.21 s⁻¹
same,kcat/Km^Cho,[7]; pH 7.0,38200 M⁻¹ s⁻¹
same,Km,[7]; [10],5.5 µM
same,kcat,[8]; pH 7.0,0.35 s⁻¹
same,kcat/Km^Cho,[8]; pH 7.0,14600 M⁻¹ s⁻¹
same,Km,[8]; [10],24 µM
same,kcat,[9]; pH 7.0,0.48 s⁻¹
same,kcat/Km^Cho,[9]; pH 7.0,14500 M⁻¹ s⁻¹
same,Km,[9]; [10],33 µM
"NC(=O)CC[C@H](N)C(=O)O [glutamine, L-glutamine]",Km,[1]; [11],110 µM
same,Km,[2]; [11],80 µM
same,Km,[3]; [11],100 µM
same,Km,[4]; [11],10 µM
same,Km,[5]; [11],60 µM
same,Km,[6]; [11],80 µM
same,Km,[7]; [11],40 µM
same,Km,[8]; [11],160 µM
same,Km,[9]; [11],70 µM
B1,amounts of tryptophan,soy seed,very high amounts of tryptophan

# Source: patent US8158851B2, “Transgenic high tryptophan plants” (Monsanto Technology LLC, priority 2002, dated 2012)
